Data reported in BigSolDB 2.1.

`CC1(C)COP(=O)(Oc2cccc(OP3(=O)OCC(C)(C)CO3)c2)OC1` gave a solubility (mole fraction) (in 1,2-dichloroethane, 293.15 K) of 0.017, a solubility (mole fraction) (in 1,2-dichloroethane, 298.15 K) of 0.0199 and a solubility (mole fraction) (in 1,2-dichloroethane, 303.15 K) of 0.0233. For the same compound, the solubility (mole fraction) (in 1,2-dichloroethane, 308.15 K) was 0.0273, the solubility (mole fraction) (in 1,2-dichloroethane, 313.15 K) was 0.0317 and the solubility (mole fraction) (in 1,2-dichloroethane, 318.15 K) was 0.0366. The solubility (mole fraction) (in 1,2-dichloroethane, 323.15 K) was 0.0423, the solubility (mole fraction) (in 1,2-dichloroethane, 328.15 K) was 0.0491 and the solubility (mole fraction) (in 1,2-dichloroethane, 333.15 K) was 0.0564. For the same compound, the solubility (mole fraction) (in acetone, 293.15 K) was 0.00607, the solubility (mole fraction) (in acetone, 298.15 K) was 0.00796 and the solubility (mole fraction) (in acetone, 303.15 K) was 0.0103. It also gave a solubility (mole fraction) (in acetone, 308.15 K) of 0.0131, a solubility (mole fraction) (in acetone, 313.15 K) of 0.0163 and a solubility (mole fraction) (in acetone, 318.15 K) of 0.0201. The solubility (mole fraction) (in acetone, 323.15 K) was 0.0251, the solubility (mole fraction) (in acetonitrile, 293.15 K) was 0.0102 and the solubility (mole fraction) (in acetonitrile, 298.15 K) was 0.0127. The solubility (mole fraction) (in acetonitrile, 303.15 K) was 0.0153, the solubility (mole fraction) (in acetonitrile, 308.15 K) was 0.0191 and the solubility (mole fraction) (in acetonitrile, 313.15 K) was 0.0231. It also gave a solubility (mole fraction) (in acetonitrile, 318.15 K) of 0.0279, a solubility (mole fraction) (in acetonitrile, 323.15 K) of 0.0342 and a solubility (mole fraction) (in acetonitrile, 328.15 K) of 0.0405. The solubility (mole fraction) (in acetonitrile, 333.15 K) was 0.0491, the solubility (mole fraction) (in chloroform, 293.15 K) was 0.0646 and the solubility (mole fraction) (in chloroform, 298.15 K) was 0.07. For the same compound, the solubility (mole fraction) (in chloroform, 303.15 K) was 0.0751, the solubility (mole fraction) (in chloroform, 308.15 K) was 0.0807 and the solubility (mole fraction) (in chloroform, 313.15 K) was 0.086. It also gave a solubility (mole fraction) (in chloroform, 318.15 K) of 0.0923, a solubility (mole fraction) (in chloroform, 323.15 K) of 0.0984 and a solubility (mole fraction) (in ethanol, 293.15 K) of 0.00179. The solubility (mole fraction) (in ethanol, 298.15 K) was 0.0024, the solubility (mole fraction) (in ethanol, 303.15 K) was 0.00313 and the solubility (mole fraction) (in ethanol, 308.15 K) was 0.00413. For the same compound, the solubility (mole fraction) (in ethanol, 313.15 K) was 0.00541, the solubility (mole fraction) (in ethanol, 318.15 K) was 0.00702 and the solubility (mole fraction) (in ethanol, 323.15 K) was 0.00902. It also gave a solubility (mole fraction) (in ethanol, 328.15 K) of 0.0118, a solubility (mole fraction) (in ethanol, 333.15 K) of 0.0151 and a solubility (mole fraction) (in ethyl acetate, 293.15 K) of 0.0008. The solubility (mole fraction) (in ethyl acetate, 298.15 K) was 0.00099, the solubility (mole fraction) (in ethyl acetate, 303.15 K) was 0.00123 and the solubility (mole fraction) (in ethyl acetate, 308.15 K) was 0.00154. The solubility (mole fraction) (in ethyl acetate, 313.15 K) was 0.00189, the solubility (mole fraction) (in ethyl acetate, 318.15 K) was 0.00233 and the solubility (mole fraction) (in ethyl acetate, 323.15 K) was 0.00284. It also gave a solubility (mole fraction) (in ethyl acetate, 328.15 K) of 0.00348, a solubility (mole fraction) (in ethyl acetate, 333.15 K) of 0.0042 and a solubility (mole fraction) (in ethyl formate, 293.15 K) of 0.00422. The solubility (mole fraction) (in ethyl formate, 298.15 K) was 0.00508, the solubility (mole fraction) (in ethyl formate, 303.15 K) was 0.00607 and the solubility (mole fraction) (in ethyl formate, 308.15 K) was 0.00713. The solubility (mole fraction) (in ethyl formate, 313.15 K) was 0.00842, the solubility (mole fraction) (in ethyl formate, 318.15 K) was 0.00988 and the solubility (mole fraction) (in ethyl formate, 323.15 K) was 0.0116. For the same compound, the solubility (mole fraction) (in methanol, 293.15 K) was 0.0022, the solubility (mole fraction) (in methanol, 298.15 K) was 0.00357 and the solubility (mole fraction) (in methanol, 303.15 K) was 0.00543. The solubility (mole fraction) (in methanol, 308.15 K) was 0.0085, the solubility (mole fraction) (in methanol, 313.15 K) was 0.0129 and the solubility (mole fraction) (in methanol, 318.15 K) was 0.0187. For the same compound, the solubility (mole fraction) (in methanol, 323.15 K) was 0.0284, the solubility (mole fraction) (in methyl acetate, 293.15 K) was 0.00229 and the solubility (mole fraction) (in methyl acetate, 298.15 K) was 0.00281. It also gave a solubility (mole fraction) (in methyl acetate, 303.15 K) of 0.00347, a solubility (mole fraction) (in methyl acetate, 308.15 K) of 0.00422 and a solubility (mole fraction) (in methyl acetate, 313.15 K) of 0.00511. The solubility (mole fraction) (in methyl acetate, 318.15 K) was 0.0062, the solubility (mole fraction) (in methyl acetate, 323.15 K) was 0.00745 and the solubility (mole fraction) (in n-hexane, 293.15 K) was 1e-05. For the same compound, the solubility (mole fraction) (in n-hexane, 298.15 K) was 2e-05, the solubility (mole fraction) (in n-hexane, 303.15 K) was 2e-05 and the solubility (mole fraction) (in n-hexane, 308.15 K) was 4e-05. For the same compound, the solubility (mole fraction) (in n-hexane, 313.15 K) was 6e-05, the solubility (mole fraction) (in n-hexane, 318.15 K) was 8e-05 and the solubility (mole fraction) (in n-hexane, 323.15 K) was 0.00012. The solubility (mole fraction) (in n-propanol, 293.15 K) was 0.00096, the solubility (mole fraction) (in n-propanol, 298.15 K) was 0.00135 and the solubility (mole fraction) (in n-propanol, 303.15 K) was 0.00187. For the same compound, the solubility (mole fraction) (in n-propanol, 308.15 K) was 0.0026, the solubility (mole fraction) (in n-propanol, 313.15 K) was 0.00356 and the solubility (mole fraction) (in n-propanol, 318.15 K) was 0.00495. For the same compound, the solubility (mole fraction) (in n-propanol, 323.15 K) was 0.00658, the solubility (mole fraction) (in n-propanol, 328.15 K) was 0.00899 and the solubility (mole fraction) (in n-propanol, 333.15 K) was 0.0118. For the same compound, the solubility (mole fraction) (in toluene, 293.15 K) was 0.00016, the solubility (mole fraction) (in toluene, 298.15 K) was 0.0002 and the solubility (mole fraction) (in toluene, 303.15 K) was 0.00026. For the same compound, the solubility (mole fraction) (in toluene, 308.15 K) was 0.00032, the solubility (mole fraction) (in toluene, 313.15 K) was 0.0004 and the solubility (mole fraction) (in toluene, 318.15 K) was 0.00049. For the same compound, the solubility (mole fraction) (in toluene, 323.15 K) was 0.00061, the solubility (mole fraction) (in toluene, 328.15 K) was 0.00076 and the solubility (mole fraction) (in toluene, 333.15 K) was 0.0009.
